Measurements from US10161932B2, “Azetidine-substituted fluorescent compounds” (HOWARD HUGHES MEDICAL INSTITUTE, priority 2014, dated 2018).
Counter-ions that a name gives are not always drawn.

What was measured:
[1] = Quantum yield measurement (Quantaurus-QY spectrometer); format: physicochemical; settings: for ϕ: 10 mM HEPES pH 7.3; for ϕ (quantum yield): aqueous buffer; for increase in quantum yield / brightness relative to parent N,N-dialkyl dye: azetidine-substituted vs parent fluorophore
Experimental: All reported quantum yield values were measured in under identical conditions using a Quantaurus-QY spectrometer (C11374, Hamamatsu). Measurements were carried out using dilute samples (A<0.1) and self-absorption corrections were performed using the instrument software. Reported values are averages (n=3).

[2] = Absorption and fluorescence spectroscopy of dyes; format: physicochemical; settings: for ε (extinction coefficient): aqueous buffer
Experimental: Phosphate buffered saline (PBS) was at pH 7.4 unless otherwise noted.
Spectroscopy was performed using 1-cm path length, 3.5-mL quartz cuvettes from Starna Cells or 1-cm path length, 1.0-mL quartz microcuvettes from Hellma. All measurements were taken at ambient temperature (22±2° C.) in 10 mM HEPES, pH 7.3 buffer unless otherwise noted. Absorption spectra were recorded on a Cary Model 100 spectrometer (Varian); reported values for extinction coefficients (ε) are averages (n=3). Fluorescence spectra were recorded on a Cary Eclipse fluorometer (Varian). Normalized spectra are shown for clarity.

[3] = Table 1, trifluoroethanol containing 0.1% (v/v) trifluoroacetic acid

SMILES: CN(C)C1CN(c2ccc3c(-c4ccccc4C(=O)[O-])c4ccc(N5CC(N(C)C)C5)cc4[o+]c3c2)C1 [Example 13, 2-(3,6-Bis(3-(dimethylamino)azetidin-1-yl)xanthylium-9-yl)benzoate]
- ϕ ([1]; Table 1): 0.57
- ε ([2]; Table 1, 10 mM HEPES pH 7.3): 111,000 M^−1 cm^−1
- λem ([2]; Table 1, 10 mM HEPES pH 7.3): 565 nm
- λmax ([2]; Table 1, 10 mM HEPES pH 7.3): 542 nm

SMILES: O=C([O-])c1ccccc1-c1c2ccc(=[N+]3CC(C(=O)O)C3)cc-2oc2cc(N3CC(C(=O)O)C3)ccc12 (stereo not drawn) [Example 16, 2-(3,6-Bis(3-carboxyazetidin-1-yl)xanthylium-9-yl)benzoate]
- ϕ ([1]; Table 1): 0.87
- ε ([2]; Table 1, 10 mM HEPES pH 7.3): 108,000 M^−1 cm^−1
- λem ([2]; Table 1, 10 mM HEPES pH 7.3): 568 nm
- λmax ([2]; Table 1, 10 mM HEPES pH 7.3): 545 nm

SMILES: O=C(O)c1ccccc1-c1c2ccc(=O)cc-2oc2cc(N3CCC3)ccc12 [Example 59, 2-(6-(Azetidin-1-yl)-3-oxo-3H-xanthen-9-yl)benzoic acid]
- ϕ ([1]; Table 3): 0.85
- ϕ (quantum yield) [1]: 0.85
- increase in quantum yield / brightness relative to parent N,N-dialkyl dye [1]: 4 fold
- ε ([2]; Table 3, 10 mM HEPES pH 7.3): 59,000 M^−1 cm^−1
- λem ([2]; Table 3, 10 mM HEPES pH 7.3): 546 nm
- λmax ([2]; Table 3, 10 mM HEPES pH 7.3): 519 nm

SMILES: CC1(C)C2=CC(=[N+]3CCC3)C=CC2=C(c2ccccc2C(=O)[O-])c2ccc(N3CCC3)cc21 [Example 40, 2-(3,6-Di(azetidin-1-yl)-10,10-dimethylanthracen-9-ylium-9(10H)-yl)benzoate]
- ϕ ([1]; Table 1): 0.67
- ϕ ([1]; Table 3): 0.67
- ϕ (quantum yield) [1]: 0.67
- ε ([2]; Table 1, 10 mM HEPES pH 7.3): 99,000 M^−1 cm^−1
- λem ([2]; Table 1, 10 mM HEPES pH 7.3): 631 nm
- λmax ([2]; Table 1, 10 mM HEPES pH 7.3): 608 nm
- ε ([2]; Table 3, 10 mM HEPES pH 7.3): 99,000 M^−1 cm^−1
- λem ([2]; Table 3, 10 mM HEPES pH 7.3): 631 nm
- λmax ([2]; Table 3, 10 mM HEPES pH 7.3): 608 nm
- ε (extinction coefficient) [2]: 99000 M⁻¹ cm⁻¹

SMILES: CC1(C)CN(c2ccc3c(-c4ccccc4C(=O)[O-])c4ccc(=[N+]5CC(C)(C)C5)cc-4oc3c2)C1 [Example 8, 2-(3,6-Bis(3,3-dimethylazetidin-1-yl)xanthylium-9-yl)benzoate]
- ϕ ([1]; Table 1): 0.83
- ε ([2]; Table 1, 10 mM HEPES pH 7.3): 110,000 M^−1 cm^−1
- λem ([2]; Table 1, 10 mM HEPES pH 7.3): 572 nm
- λmax ([2]; Table 1, 10 mM HEPES pH 7.3): 550 nm

SMILES: CC1(C)C2=CC(=[N+]3CC(F)(F)C3)C=CC2=C(c2ccccc2C(=O)[O-])c2ccc(N3CC(F)(F)C3)cc21 [Example 41, 2-(3,6-Bis(3,3-difluoroazetidin-1-yl)-10,10-dimethylanthracen-9-ylium-9(10H)-yl)benzoate]
- ϕ ([1]; Table 1): 0.78
- λem ([2]; Table 1, 10 mM HEPES pH 7.3): 609 nm
- λmax ([2]; Table 1, 10 mM HEPES pH 7.3): 585 nm
- ε [2, 3]: 156,000^a M^−1 cm^−1

SMILES: C[Si]1(C)C2=CC(=[N+]3CC(F)C3)C=CC2=C(c2ccccc2C(=O)[O-])c2ccc(N3CC(F)C3)cc21 (stereo not drawn) [Example 31, 2-(3,7-Bis(3-fluoroazetidin-1-yl)-5,5-dimethyldibenzo[b,e]silin-10-ylium-10(5H)-yl)benzoate]
- ϕ ([1]; Table 1): 0.56
- λem ([2]; Table 1, 10 mM HEPES pH 7.3): 652 nm
- λmax ([2]; Table 1, 10 mM HEPES pH 7.3): 635 nm
- ε [2, 3]: 167,000^a M^−1 cm^−1

SMILES: CN(C)c1ccc2cc3ccc(N(C)C)cc3nc2c1 [Acridine Orange, reference compound]
- ϕ ([1]; Table 3): 0.21
- ϕ (quantum yield) [1]: 0.21
- ε ([2]; Table 3, 10 mM HEPES pH 7.3): 50,000 M^−1 cm^−1
- λem ([2]; Table 3, 10 mM HEPES pH 7.3): 528 nm
- λmax ([2]; Table 3, 10 mM HEPES pH 7.3): 493 nm

SMILES: O=C([O-])c1ccccc1-c1c2ccc(=[N+]3CC(F)C3)cc-2oc2cc(N3CC(F)C3)ccc12 (stereo not drawn) [Example 10, 2-(3,6-Bis(3-fluoroazetidin-1-yl)xanthylium-9-yl)benzoate]
- ϕ ([1]; Table 1): 0.87
- ε ([2]; Table 1, 10 mM HEPES pH 7.3): 113,000 M^−1 cm^−1
- λem ([2]; Table 1, 10 mM HEPES pH 7.3): 560 nm
- λmax ([2]; Table 1, 10 mM HEPES pH 7.3): 536 nm

SMILES: c1cc2nc3ccc(=[N+]4CCC4)cc-3oc2cc1N1CCC1 [Example 61, 3,7-Di(azetidin-1-yl)phenoxazin-5-ium trifluoroacetate]
- ϕ ([1]; Table 3): 0.24
- ϕ (quantum yield) [1]: 0.24
- increase in quantum yield / brightness relative to parent N,N-dialkyl dye [1]: 3.4 fold
- ε ([2]; Table 3, 10 mM HEPES pH 7.3): 99,000 M^−1 cm^−1
- λem ([2]; Table 3, 10 mM HEPES pH 7.3): 661 nm
- λmax ([2]; Table 3, 10 mM HEPES pH 7.3): 647 nm
- ε (extinction coefficient) [2]: 99000 M⁻¹ cm⁻¹

SMILES: O=C(O)c1cc2ccc(N3CCC3)cc2oc1=O [Example 51, 7-(Azetidin-1-yl)-2-oxo-2H-chromene-3-carboxylic acid]
- ϕ ([1]; Table 3): 0.84
- ϕ (quantum yield) [1]: 0.84
- increase in quantum yield / brightness relative to parent N,N-dialkyl dye [1]: ~30 fold
- ε ([2]; Table 3, 10 mM HEPES pH 7.3): 24,000 M^−1 cm^−1
- λem ([2]; Table 3, 10 mM HEPES pH 7.3): 470 nm
- λmax ([2]; Table 3, 10 mM HEPES pH 7.3): 387 nm
- ε (extinction coefficient) [2]: 24000 M⁻¹ cm⁻¹

SMILES: Cc1cc(=O)oc2cc(N3CCC3)ccc12 [Example 49, 7-(Azetidin-1-yl)-4-methyl-2H-chromen-2-one]
- ϕ ([1]; Table 3): 0.96
- ϕ (quantum yield) [1]: 0.96
- increase in quantum yield / brightness relative to parent N,N-dialkyl dye [1]: five-fold
- ε ([2]; Table 3, 10 mM HEPES pH 7.3): 15,000 M^−1 cm^−1
- λem ([2]; Table 3, 10 mM HEPES pH 7.3): 467 nm
- λmax ([2]; Table 3, 10 mM HEPES pH 7.3): 354 nm
- ε (extinction coefficient) [2]: 15000 M⁻¹ cm⁻¹
